Nine compounds from patent US20250177359A1, “COMPOUNDS FOR USE IN THE TREATMENT OF CANCER AND INFLAMMATORY CONDITIONS” (priority 2022, published 2025) can be followed below.

The target of one assay is T1, PARP10 (Homo sapiens, UniProt Q53GL7).
T1 construct: made in house
T1 sequence (Q53GL7 1-1025): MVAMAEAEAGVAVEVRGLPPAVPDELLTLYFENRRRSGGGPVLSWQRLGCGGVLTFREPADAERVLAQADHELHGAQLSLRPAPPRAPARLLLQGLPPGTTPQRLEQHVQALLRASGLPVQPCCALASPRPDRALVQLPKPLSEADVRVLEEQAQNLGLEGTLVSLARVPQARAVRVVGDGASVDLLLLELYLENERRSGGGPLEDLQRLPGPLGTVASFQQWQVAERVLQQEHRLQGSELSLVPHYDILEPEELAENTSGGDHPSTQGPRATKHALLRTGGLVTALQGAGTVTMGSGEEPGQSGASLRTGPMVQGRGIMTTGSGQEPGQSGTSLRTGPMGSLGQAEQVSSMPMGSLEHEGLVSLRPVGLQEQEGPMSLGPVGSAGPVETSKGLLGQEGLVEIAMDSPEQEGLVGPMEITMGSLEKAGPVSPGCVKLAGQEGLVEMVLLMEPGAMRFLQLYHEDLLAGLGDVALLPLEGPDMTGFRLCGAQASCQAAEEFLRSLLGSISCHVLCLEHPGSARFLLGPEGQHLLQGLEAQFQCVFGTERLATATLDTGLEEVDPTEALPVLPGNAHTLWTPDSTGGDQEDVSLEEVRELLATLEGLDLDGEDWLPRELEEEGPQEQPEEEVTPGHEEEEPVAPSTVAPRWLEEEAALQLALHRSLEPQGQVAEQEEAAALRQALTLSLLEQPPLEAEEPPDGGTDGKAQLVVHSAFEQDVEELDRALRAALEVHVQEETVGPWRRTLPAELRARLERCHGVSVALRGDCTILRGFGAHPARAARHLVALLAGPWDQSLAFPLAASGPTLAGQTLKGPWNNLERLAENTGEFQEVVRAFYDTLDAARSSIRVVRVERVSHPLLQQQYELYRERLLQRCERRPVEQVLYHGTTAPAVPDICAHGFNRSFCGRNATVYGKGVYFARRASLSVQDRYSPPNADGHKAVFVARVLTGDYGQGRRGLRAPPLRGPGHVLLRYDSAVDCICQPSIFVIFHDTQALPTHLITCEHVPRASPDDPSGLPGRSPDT
Briefly: Activity assay measuring NAD+ consumption, PARP10 (Tables 1-3). It is filed as biochemical.

A further assay has as its target T2, PARP15 (Homo sapiens, UniProt Q460N3).
T2 sequence (Q460N3 1-678): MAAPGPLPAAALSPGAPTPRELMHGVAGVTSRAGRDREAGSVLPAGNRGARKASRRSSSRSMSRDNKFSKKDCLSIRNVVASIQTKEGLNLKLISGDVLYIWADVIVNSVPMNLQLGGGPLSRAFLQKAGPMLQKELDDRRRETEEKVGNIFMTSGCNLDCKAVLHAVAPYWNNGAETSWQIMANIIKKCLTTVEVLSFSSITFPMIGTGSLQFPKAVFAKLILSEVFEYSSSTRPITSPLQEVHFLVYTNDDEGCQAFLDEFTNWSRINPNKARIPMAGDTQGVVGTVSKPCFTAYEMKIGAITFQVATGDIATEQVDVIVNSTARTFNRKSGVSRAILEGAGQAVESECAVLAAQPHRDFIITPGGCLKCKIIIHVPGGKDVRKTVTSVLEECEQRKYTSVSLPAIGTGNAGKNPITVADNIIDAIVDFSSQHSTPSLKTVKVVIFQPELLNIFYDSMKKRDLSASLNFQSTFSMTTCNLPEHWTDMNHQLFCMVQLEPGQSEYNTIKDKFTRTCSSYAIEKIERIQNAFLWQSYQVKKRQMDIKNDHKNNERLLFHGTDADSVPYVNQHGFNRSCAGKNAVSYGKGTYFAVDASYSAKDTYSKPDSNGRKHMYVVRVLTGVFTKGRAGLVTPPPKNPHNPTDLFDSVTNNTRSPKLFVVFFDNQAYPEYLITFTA
The assay can be described thus: biochemical. As for the experimental part: All starting materials, reagents, and solvents were purchased from common commercial suppliers and were used as such without further purification. […] Organic solutions were dried over anhydrous Na2SO4 and concentrated with rotary evaporator at low pressure. All the reactions were routinely checked by thin-layer chromatography (TLC) on silica gel 60F254 (Merck) and visualized by using UV and iodine. Flash chromatography separations were carried out on Merck silica gel 60 (mesh 230-400) or by using automated Buchi Reveleris X2-UV with column FP Ecoflex Si 12 g. Yields were of purified products and were not optimized. ^1HNMR spectra were recorded at 400 MHz (Bruker Avance DRX-400), while ^13CNMR spectra were recorded at 101 MHz (Bruker Avance DRX-400). Chemical shifts are given in ppm (δ) relative to TMS. […] Mating constant (J) are reported in Hz. The purity of the tested compounds was evaluated by HPLC analysis using Jasco LC-4000 instrument equipped with a UV-Visible Diode Array Jasco-MD4015 (Jasco Corporation, Tokyo, Japan), and XTerra MS C18 column, 5 μm×4.6 mm×150 mm (Waters Corporation, Massachusetts, USA). Chromatograms were analyzed by ChromNAV2.0 Chromatography Data System software. […] The peak retention time (ret. time) is given in minutes. […] 1-Isobutoxy-4-methoxy-2-nitrobenzene (113). Isobutyl alcohol (0.6 mL, 6.43 mmol) was added, under nitrogen atmosphere at 0° C., to a suspension of NaH (0.26 g, 6.43 mmol) in dry DMF. After 15 minutes, 1-fluoro-4-methoxy-2-nitrobenzene 112 (1 g, 5.84 mmol) was also added and the reaction mixture was stirred at 80° C. for 4 h. […] (2-Isobutoxy-5-methoxyphenyl)amine (114). Zn (1.57 g, 24 mmol) and NH4C1 (2.45 g, 40 mmol) were added to a solution of 113 (0.46 g, 2 mmol) in acetone/H2O (50 mL, ratio 5:1). The reaction mixture was stirred at 60° C. for 3 h and, then, it was filtered over celite. […] N-(2,5-diethoxyphenyl)thiourea (55). […] N-(2-isobutoxy-5-methoxyphenyl)thiourea (115). […] A solution of Br2 (0.2 mL, 3.3 mmol) in CHCl3 (5 mL) was slowly added to a suspension of 45 (0.6 g, 3.3 mmol) in CHCl3 (13 mL), at 0° C. The reaction mixture was stirred at r.t. for 4 h and, then, a 10% solution of Na2SO3 in water was added to the mixture. […] 4,7-Diethoxy-1,3-benzothiazol-2-amine (66). […] 4-Isobutoxy-7-methoxy-1,3-benzothiazol-2-amine (116). […] Hydrazine hydrate (0.23 mL, 4.77 mmol) and CH3COOH (0.12 mL, 2.1 mmol) were added to a suspension of 56 (0.29 g, 1.59 mmol) in ethylene glycol (8 mL), and the reaction mixture was stirred for 24 h at 125° C. […] 6-Ethyl-2-hydrazino-1,3-benzothiazole (69). […] 6-Ispropyl-2-hydrazino-1,3-benzothiazole (70). […] 2-Hydrazino-4,7-dimethoxy-1,3-benzothiazole (73). […] 2-Hydrazino-5,7-dimethoxy-1,3-benzothiazole (75). […] 2-Hydrazino-4,7-Diethoxy-1,3-benzothiazole (77). […] 2-Hydrazino-5-methyl[1,3]thiazolo[5,4-b]pyridine (100). […] A solution of 67 (0.13 g, 0.65 mmol) in formic acid (5 mL) was refluxed for 10 h. The reaction mixture was then poured into ice/water and the pH was neutralized using a saturated solution of NaHCO3.

[1] abbreviates: Tables 1-3 assay, > less than 50% inhibition, >> no inhibition at reported concentration, * value limited by protein concentration, read-out: PARP10 IC50.
Setting [2] is: read-out: PARP15 IC50, Tables 1-3 assay, > less than 50% inhibition, >> no inhibition at reported concentration, * value limited by protein concentration.
Setting [3] is: PARP10 IC50, Tables 1-3 assay, > less than 50% inhibition, >> no inhibition at reported concentration, * value limited by protein concentration.
Where [4] appears, read: PARP10 pIC50 ± SEM, Tables 1-3 assay.

Read-outs that look alike come from different tables or passages of the source.

In the case of `COc1ccc(OC)c2c1SC1=NNC(SC)N12` (stereo not drawn) [Compound 27, 5,8-Dimethoxy-3-(methylthio)-2,3-dihydro[1,2,4]triazolo[3,4-b][1,3]benzothiazole], the concentration for half-maximal inhibition (IC50) on PARP10 (setting [1]) and on PARP15 (setting [2]) was more than 10000 nM throughout.
With `COc1ccc(OC)c2c1SC1=NNC(NC(=O)c3ccc(Cl)cc3)N12` (stereo not drawn) [Compound 29, 4-Chloro-N-(5,8-dimethoxy-2,3-dihydro[1,2,4]triazolo[3,4-b][1,3]benzothiazol-3-yl)benzamide], the concentration for half-maximal inhibition (IC50) was more than 10000 nM on PARP10 (setting [1]) and 7900 nM at PARP15 (setting [2]).
In the case of `c1cnc2sc3nncn3c2c1` [Compound 101, [1,2,4]Triazolo[3′,4′:2,3][1,3]thiazolo[5,4-b]pyridine], the “inhibition of PARP10 (in words)” value against PARP10 is “only weak inhibition”. Moreover, it took 30000 nM to reach half-maximal inhibition against PARP10 (setting [3]) (IC50).
Consider `CCOc1ccc(OCC)c2c1sc1nncn12` [Compound 102, 5,8-Diethoxy[1,2,4]triazolo[3,4-b][1,3]benzothiazole], for which the “inhibition of PARP10 (in words)” value against PARP10 was “potent PARP10 inhibitors”. In addition, the IC50 against PARP10 (PARP10 IC50, Tables 1-3 assay) was 610 nM.
Consider `CCOc1ccc(OCC)c2c1sc1nnc(N)n12` [Compound 103, 5,8-Diethoxy[1,2,4]triazolo[3,4-b][1,3]benzothiazol-3-amine], for which the “inhibition of PARP10 (in words)” value at PARP10 is reported as “potent PARP10 inhibitors”. On PARP10 (PARP10 IC50, Tables 1-3 assay), this compound returned a concentration for half-maximal inhibition (IC50) of 72 nM.
For `COc1cc2sc3nnc(N)n3c2cc1OC` [Compound 104, 6,7-Dimethoxy[1,2,4]triazolo[3,4-b][1,3]benzothiazol-3-amine], the IC50 at PARP10 (PARP10 IC50, Tables 1-3 assay) was 110 nM; against PARP10 (setting [4]) it was 107 nM; on PARP15 (PARP15 IC50, Tables 1-3 assay) it was 170 nM.
Consider `CC(=O)Nc1nnc2sc3cc(C)ccc3n12` [Compound 107, N-(7-methyl[1,2,4]triazolo[3,4-b][1,3]benzothiazol-3-yl)acetamide], for which the concentration for half-maximal inhibition (IC50) at PARP10 (setting [3]) turned out to be 2600 nM; at PARP15 (PARP15 IC50, Tables 1-3 assay, > less than 50% inhibition, >> no inhibition at reported concentration, * value limited by protein concentration), 5200 nM.
`Nc1nnc2sc3cc(Br)ccc3n12` [Compound 108, 7-Bromo[1,2,4]triazolo[3,4-b][1,3]benzothiazol-3-amine]: the IC50 is 60 nM at PARP10 (PARP10 IC50, Tables 1-3 assay); 150 nM on PARP15 (PARP15 IC50, Tables 1-3 assay); 145 nM against PARP15 (PARP15 pIC50 ± SEM, Tables 1-3 assay).
Consider `COc1ccc(OCC(C)C)c2c1sc1nnc(N)n12` [Compound 110, 5-Isobutoxy-8-methoxy[1,2,4]triazolo[3,4-b][1,3]benzothiazol-3-amine], for which the IC50 on PARP10 (PARP10 IC50, Tables 1-3 assay) was 80 nM; on PARP10 (setting [4]) it was 81.3 nM; against PARP15 it was 180 nM.

What is called IC50 is the concentration that inhibits the measured activity by half.
